Source: ChEMBL document CHEMBL5608173, “Discovery of novel natural-product-derived mutant isocitrate dehydrogenases 1 inhibitors: Structure-based virtual screening, biological evaluation and structure-activity relationship study” (Eur J Med Chem, 2024)

Experiments:
[1] = AUC (0 to t) in Sprague-Dawley rat at 0.5 mg/kg, iv measured after 24 hrs by LC-MS/MS analysis; type: ADME, organism-based; settings: in vivo
HT-1080 [2] = assay: Cell cycle arrest in human HT-1080 cells assessed as G1 phase cells at 2 uM incubated for 24 hrs by PI staining based flow cytometric analysis (reference value: 58.1 %); type: functional
HT-1080 [3] = assay: Cell cycle arrest in human HT-1080 cells assessed as G2 phase cells at 10 uM incubated for 24 hrs by PI staining based flow cytometric analysis (reference value: 23.6 %); type: functional
U-87 MG [4] = assay: Antiproliferative activity against human U-87 MG cells harboring IDH1 R132H mutant assessed as reduction in cell viability incubated for 72 hrs by MTT assay; type: functional, U-87MG ATCC
HT-1080 [5] = assay: Cell cycle arrest in human HT-1080 cells assessed as S phase cells at 8 uM incubated for 24 hrs by PI staining based flow cytometric analysis (reference value: 18.3 %); type: functional
HT-1080 [6] = assay: Cell cycle arrest in human HT-1080 cells assessed as S phase cells at 4 uM incubated for 24 hrs by PI staining based flow cytometric analysis (reference value: 18.3 %); type: functional
HT-1080 [7] = assay: Induction of apoptosis in human HT-1080 cells assessed as early apoptotic cells at 4 uM incubated for 48 hrs by Annexin V-FITC/PI staining based flow cytometric analysis (reference value: 2.33 %); type: functional
HT-1080 [8] = assay: Induction of apoptosis in human HT-1080 cells assessed as necrotic cells at 6 uM incubated for 24 hrs by Annexin V-FITC/PI staining based flow cytometric analysis (reference value: 0.38 %); type: functional
BEAS-2B = assay: Cytotoxicity against human BEAS-2B cells assessed as reduction in cell viability at 0.5 to 2 uM; type: toxicity, cell-based; settings: dose 0.5-2 µM
[9] = Clearance in Sprague-Dawley rat at 0.5 mg/kg, iv measured after 24 hrs by LC-MS/MS analysis; type: ADME, organism-based; settings: in vivo
[10] = AUC (0 to t) in Sprague-Dawley rat at 5 mg/kg, po measured after 24 hrs by LC-MS/MS analysis; type: ADME, organism-based; settings: in vivo
HT-1080 [11] = assay: Induction of apoptosis in human HT-1080 cells assessed as early apoptotic cells at 6 uM incubated for 12 hrs by Annexin V-FITC/PI staining based flow cytometric analysis (reference value: 2.36 %); type: functional
HT-1080 [12] = assay: Cell cycle arrest in human HT-1080 cells assessed as G2 phase cells at 4 uM incubated for 24 hrs by PI staining based flow cytometric analysis (reference value: 23.6 %); type: functional
HT-1080 [13] = assay: Induction of apoptosis in human HT-1080 cells assessed as necrotic cells at 6 uM incubated for 48 hrs by Annexin V-FITC/PI staining based flow cytometric analysis (reference value: 0.38 %); type: functional
[14] = biological target: Isocitrate dehydrogenase [NADP] cytoplasmic (Homo sapiens, UniProt O75874, R132H); assay: Inhibition of recombinant human IDH1 R132H mutant extracted from Escherichia coli BL21 (DE3) cells using alpha-ketoglutarate as substrate incubated for 60 mins in presence of NADPH by absorbance based assay
Chain of Isocitrate dehydrogenase [NADP] cytoplasmic (Homo sapiens, UniProt O75874, R132H) (O75874 2-414 R132H limits assumed): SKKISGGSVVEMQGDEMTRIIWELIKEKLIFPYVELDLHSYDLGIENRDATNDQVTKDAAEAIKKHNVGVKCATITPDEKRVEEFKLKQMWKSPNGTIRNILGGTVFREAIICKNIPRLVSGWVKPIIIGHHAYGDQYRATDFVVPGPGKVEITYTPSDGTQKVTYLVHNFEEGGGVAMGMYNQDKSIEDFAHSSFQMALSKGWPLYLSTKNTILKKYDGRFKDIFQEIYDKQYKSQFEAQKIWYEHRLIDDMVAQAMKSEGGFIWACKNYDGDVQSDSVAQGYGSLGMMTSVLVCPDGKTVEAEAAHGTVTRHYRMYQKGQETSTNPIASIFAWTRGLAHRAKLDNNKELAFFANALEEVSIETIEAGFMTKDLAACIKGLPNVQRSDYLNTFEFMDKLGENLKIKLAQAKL

HT-1080 [15] = assay: Induction of apoptosis in human HT-1080 cells assessed as viable cells at 6 uM incubated for 48 hrs by Annexin V-FITC/PI staining based flow cytometric analysis (reference value: 96.65 %); type: functional; settings: read-out: Activity
[16] = Tmax in Sprague-Dawley rat at 5 mg/kg, po measured after 24 hrs by LC-MS/MS analysis; type: ADME, organism-based; settings: in vivo
HT-1080 [17] = assay: Induction of apoptosis in human HT-1080 cells assessed as early apoptotic cells at 8 uM incubated for 48 hrs by Annexin V-FITC/PI staining based flow cytometric analysis (reference value: 2.33 %); type: functional
[18] = biological target: T1, Isocitrate dehydrogenase [NADP] cytoplasmic (Homo sapiens, UniProt O75874, R132C); assay: Inhibition of IDH1 R132C mutant in human HT-1080 cells assessed as reduction in 2-HG level incubated for 48 hrs in presence of NAD+ by resazurin fluorescence dye based Sigma MAK320-1 assay kit analysis; type: cell-based
T1 sequence (O75874 2-414 R132C limits assumed): as the sequence (O75874 2-414 R132H limits assumed) above, with H131C counted along it

HT-1080 [19] = assay: Induction of apoptosis in human HT-1080 cells assessed as late apoptotic cells at 4 uM incubated for 48 hrs by Annexin V-FITC/PI staining based flow cytometric analysis (reference value: 1.15 %); type: functional
HT-1080 [20] = assay: Inhibition of cell migration in human HT-1080 cells incubated for 24 hrs by cell scratch assay; type: functional, cell-based; settings: dose 1-3 µM
[21] = Cmax in Sprague-Dawley rat at 0.5 mg/kg, iv measured after 24 hrs by LC-MS/MS analysis; type: ADME, organism-based; settings: in vivo
L02 = assay: Cytotoxicity against human L02 cells assessed as reduction in cell viability at 0.5 to 2 uM; type: toxicity, cell-based; settings: l02, 2 µM, dose 0.5-2 µM
HT-1080 [22] = assay: Cell cycle arrest in human HT-1080 cells assessed as S phase cells at 2 uM incubated for 24 hrs by PI staining based flow cytometric analysis (reference value: 18.3 %); type: functional
HT-1080 [23] = assay: Cell cycle arrest in human HT-1080 cells assessed as S phase cells at 10 uM incubated for 24 hrs by PI staining based flow cytometric analysis (reference value: 18.3 %); type: functional
U-87 MG [24] = assay: Antiproliferative activity against human U-87 MG cells assessed as reduction in cell viability incubated for 72 hrs by MTT assay; type: functional, U-87MG ATCC
[25] = test system: Isocitrate dehydrogenase [NADP] cytoplasmic (Homo sapiens), O75874 [R132C]; assay: Inhibition of recombinant human IDH1 R132C mutant extracted from Escherichia coli BL21 (DE3) cells using alpha-ketoglutarate as substrate at 0.2 uM incubated for 60 mins in presence of NADPH by absorbance based assay relative to control
Chain of Isocitrate dehydrogenase [NADP] cytoplasmic (Homo sapiens), O75874 [R132C] (O75874 whole entry R132C): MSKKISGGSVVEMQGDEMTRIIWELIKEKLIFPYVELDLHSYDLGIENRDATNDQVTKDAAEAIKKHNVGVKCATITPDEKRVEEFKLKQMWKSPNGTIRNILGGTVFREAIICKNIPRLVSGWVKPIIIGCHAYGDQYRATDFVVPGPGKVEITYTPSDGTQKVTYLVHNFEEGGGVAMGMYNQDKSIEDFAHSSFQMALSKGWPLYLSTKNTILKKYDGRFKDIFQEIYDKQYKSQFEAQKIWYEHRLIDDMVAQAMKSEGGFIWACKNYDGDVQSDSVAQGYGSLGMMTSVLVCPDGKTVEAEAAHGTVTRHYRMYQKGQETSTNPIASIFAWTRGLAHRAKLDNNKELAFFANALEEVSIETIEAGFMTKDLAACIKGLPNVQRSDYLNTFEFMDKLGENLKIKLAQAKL

HT-1080 [26] = assay: Induction of apoptosis in human HT-1080 cells assessed as late apoptotic cells at 6 uM incubated for 48 hrs by Annexin V-FITC/PI staining based flow cytometric analysis (reference value: 0.60 %); type: functional
[27] = biological target: T1, Isocitrate dehydrogenase [NADP] cytoplasmic; assay: Inhibition of recombinant human IDH1 R132C mutant extracted from Escherichia coli BL21 (DE3) cells using alpha-ketoglutarate as substrate incubated for 60 mins in presence of NADPH by absorbance based assay
[28] = In vivo inhibition of IDH1 mutant in female nude mouse xenografted with human HT-1080 cells assessed as reduction in 2-HG levels in tumor at 20 mg/kg, ip administered twice at 1 hrs interval by resazurin fluorescence dye based Sigma MAK320-1 assay kit analysis relative to control; type: functional
[29] = Toxicity in Sprague-Dawley rat assessed as observable clinical signs at 5 mg/kg, po measured after 24 hrs; type: organism-based; settings: in vivo
HT-1080 [30] = assay: Induction of apoptosis in human HT-1080 cells assessed as late apoptotic cells at 6 uM incubated for 24 hrs by Annexin V-FITC/PI staining based flow cytometric analysis (reference value: 0.60 %); type: functional
HT-1080 [31] = assay: Induction of apoptosis in human HT-1080 cells assessed as late apoptotic cells at 2 uM incubated for 48 hrs by Annexin V-FITC/PI staining based flow cytometric analysis (reference value: 1.15 %); type: functional
[32] = Tmax in Sprague-Dawley rat at 0.5 mg/kg, iv measured after 24 hrs by LC-MS/MS analysis; type: ADME, organism-based; settings: in vivo
HT-1080 [33] = assay: Cell cycle arrest in human HT-1080 cells assessed as G2 phase cells at 8 uM incubated for 24 hrs by PI staining based flow cytometric analysis (reference value: 23.6 %); type: functional

**Q.** Which AUC(0-t) at 24 h [1] does the source give for COc1cc(O)c(-c2cc(-c3ccc(O)cc3)nc(N3CCNCC3)n2)cc1CC=C(C)C here?
**A.** The AUC(0-t) at 24 h was 236 ng·h/mL.

**Q.** And the Activity (HT-1080 [2])?
**A.** Its Activity is 55.7%.

**Q.** And the Activity (HT-1080 [3])?
**A.** The Activity was 3%.

**Q.** And the GC50 (U-87 MG [4])?
**A.** The GC50 was 3480 nM.

**Q.** And the Activity (HT-1080 [5])?
**A.** The Activity was 32.3%.

**Q.** What about the Activity (HT-1080 [6]) of the same molecule?
**A.** Its Activity is 22.9%.

**Q.** And the Activity (HT-1080 [7])?
**A.** The Activity was 4.48%.

**Q.** What about the Activity (HT-1080 [8]) of the same molecule?
**A.** Its Activity is 4.16%.

**Q.** What about the Activity (BEAS-2B) of the same molecule?
**A.** The Activity was “Non-Toxic”.

**Q.** What about the clearance [9] of the same molecule?
**A.** Its clearance is 27.3 mL/min/kg.

**Q.** And the AUC(0-t) at 24 h [10]?
**A.** The AUC(0-t) at 24 h was 370 ng·h/mL.

**Q.** And the Activity (HT-1080 [11])?
**A.** The Activity was 0.62%.

**Q.** And the Activity (HT-1080 [12])?
**A.** The Activity was 21%.

**Q.** What about the Activity (HT-1080 [13]) of the same molecule?
**A.** The Activity was 1.35%.

**Q.** What about the IC50 [14] of the same molecule?
**A.** The IC50 was 124 nM.

**Q.** And the viability at 6 µM (HT-1080 [15])?
**A.** Its viability at 6 µM is 80.8%.

**Q.** What about the Tmax [16] of the same molecule?
**A.** Its Tmax is 11.4 min.

**Q.** And the Activity (HT-1080 [17])?
**A.** Its Activity is 7.82%.

**Q.** What about the EC50 [18] of the same molecule?
**A.** Its EC50 is 84 nM.

**Q.** And the Activity (HT-1080 [19])?
**A.** The Activity was 9.67%.

**Q.** And the inhibition (HT-1080 [20])?
**A.** The inhibition was “Dose-Dependent Effect”.

**Q.** And the Cmax [21]?
**A.** The Cmax was 766 ng/mL.

**Q.** And the Activity (L02)?
**A.** Its Activity is “Non-Toxic”.

**Q.** And the Activity (HT-1080 [22])?
**A.** Its Activity is 22.4%.

**Q.** And the Activity (HT-1080 [23])?
**A.** Its Activity is 51.6%.

**Q.** And the GC50 (U-87 MG [24])?
**A.** The GC50 was 6910 nM.

**Q.** What about the inhibition [25] of the same molecule?
**A.** The inhibition was 65.9%.

**Q.** What about the Activity (HT-1080 [26]) of the same molecule?
**A.** Its Activity is 6.57%.

**Q.** What about the IC50 [27] of the same molecule?
**A.** Its IC50 is 95.7 nM.

**Q.** And the inhibition in vivo at 20 mg/kg [28]?
**A.** The inhibition in vivo at 20 mg/kg was 75%.

**Q.** What about the Activity [29] of the same molecule?
**A.** The Activity was “Non-Toxic”.

**Q.** What about the Activity (HT-1080 [30]) of the same molecule?
**A.** The Activity was 5.26%.

**Q.** And the Activity (HT-1080 [31])?
**A.** Its Activity is 4.96%.

**Q.** And the Tmax [32]?
**A.** Its Tmax is 1.8 min.

**Q.** What about the Activity (HT-1080 [33]) of the same molecule?
**A.** Its Activity is 15.9%.
